Here are results for one compound from ChEMBL document CHEMBL1148466, “Self-association of okadaic acid upon complexation with potassium ion” (J Med Chem, 2004).

In experiment [1] the target is Serine/threonine-protein phosphatase PP1-gamma catalytic subunit (Homo sapiens, UniProt P36873). The experiment is described as follows: Inhibitory activity against serine/threonine protein phosphatase 1(PP1).
Experiment [2] is described as follows: Inhibitory activity against serine/threonine protein phosphatase 2 (PP2A).

For orientation: IC50 means the concentration that gives 50% inhibition. Lower therefore signals higher potency.

Chain of Serine/threonine-protein phosphatase PP1-gamma catalytic subunit (P36873 whole entry): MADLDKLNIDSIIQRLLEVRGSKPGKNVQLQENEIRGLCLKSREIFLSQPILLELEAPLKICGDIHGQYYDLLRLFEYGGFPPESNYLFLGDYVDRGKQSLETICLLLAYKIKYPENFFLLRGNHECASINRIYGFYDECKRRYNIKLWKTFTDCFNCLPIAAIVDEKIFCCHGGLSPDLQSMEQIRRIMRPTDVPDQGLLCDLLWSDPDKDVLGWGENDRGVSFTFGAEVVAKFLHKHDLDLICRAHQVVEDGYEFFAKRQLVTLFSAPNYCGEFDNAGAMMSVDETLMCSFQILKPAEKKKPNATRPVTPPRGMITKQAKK

For `C=C1[C@@H](O)[C@@H]2O[C@]3(CC[C@H](/C=C/[C@@H](C)[C@@H]4CC(C)=C[C@@]5(O[C@H](C[C@@](C)(O)C(=O)O)CC[C@H]5O)O4)O3)CC[C@H]2O[C@@H]1[C@@H](O)C[C@H](C)[C@H]1O[C@@]2(CCCCO2)CC[C@H]1C` [OKADAIC ACID], the half-inhibitory concentration (IC50) was 0.02 µM in experiment [1] and 0.0002 µM in experiment [2].
